# Measured values as given in patent publication US9382549B2, “Glyphosate resistant plants and associated methods” (DOW AGROSCIENCES LLC, priority 2012, dated 2016).
# B1: DGT-28 v1: native EPSP synthase of Streptomyces sviceus (SEQ ID NO:1), N-terminal 6×His tag, E. coli expressed (protein, listed as Streptomyces sviceus)
# chain: MRGMPALSLPGSKSITARALFLAAAADGVTTLVRPLRSDDTEGFAEGLVRLGYRVGRTPDTWQVDGRPQGPAVAEADVYCRDGATTARFLPTLAAAGHGTYRFDASPQMRRRPLLPLSRALRDLGVDLRHEEAEGHHPLTVRAAGVEGGEVTLDAGQSSQYLTALLLLGPLTRQGLRIRVTDLVSAPYVEITLAMMRAFGVEVAREGDVFVVPPGGYRATTYAIEPDASTASYFFAAAALTPGAEVTVPGLGTGALQGDLGFVDVLRRMGAEVSVGADATTVRGTGELRGLTANMRDISDTMPTLAAIAPFASAPVRIEDVANTRVKECDRLEACAENLRRLGVRVATGPDWIEIHPGPATGAQVTSYGDHRIVMSFAVTGLRVPGISFDDPGCVRKTFPGFHEAFAELRRGIGS
# modifications: N-terminal 6xHis tag
# B2: DGT-31 (v1): Streptomyces EPSP synthase (GENBANK YP_004922608.1) (protein)
# chain: MTVIDIPGSKSVTARALFLAAAADGTTTLLRPLHSDDTEGFTEGLTRLGYAVVREPDRWHIEGRPSGPAAADAEVHCRDGATTARFLPTLAAAAASGTYRFDASAQMRRRPLAPLTEALRTLGVDLRHDGAEGHHPLTIQASGVKGGGLTLDAGESSQYLTALLMLGPLTAEGLRIEVTELVSAPYVEITLAMMRGFGVEVVREGNTFTVPPGGYRATTYAIEPDASTASYFFAAAALTGREVTVPGLGTGALQGDLRFTEVLRRMDADVRTTSDSTTVRSDGRLAGLTVNMRDISDTMPTLAAIAPYASSPVRIEDVANTRVKECDRLEACAQNLRSMGITVRTGPDWIEIHPGTPRPTEIATHGDHRIVMSFAVAGLRTPGMSYDDPGCVRKTFPRFHEEFAAFVERSSAGE
# modifications: DGT-31 protein
# Key:
# [1] = test system: untransformed B104 maize line; test: Growth inhibition dosage response of maize cells on glyphosate; assay type: cell-based, Zea mays
# T1 Arabidopsis [2] = test: T1 Arabidopsis response to postemergence glyphosate, visual % injury (dgt-28, dgt-32, dgt-33, dgt-3, dgt-7); assay type: in vivo, Arabidopsis thaliana
# From the text: Transgenic T1 Arabidopsis plants containing the dgt-28 transgene were sprayed with differing rates of glyphosate. Elevated rates were applied in this study to determine the relative levels of resistance (105, 420, 1,680 or 3,360 g ae/ha). A typical 1× usage rate of glyphosate that will control non-transformed Arabidopsis is 420 g ae/ha. […] The T1 Arabidopsis plants that were used in this study were variable copy number for the dgt-28 transgene. The low copy dgt-28 T1 Arabidopsis plants were self-pollinated and used to produce T2 plants.
# The Arabidopsis T1 transformants were first selected from the background of untransformed seed using a glufosinate selection scheme. Three flats or 30,000 seed were analyzed for each T1 construct. The T1 plants selected above were molecularly characterized and representative plants with variable copy number were subsequently transplanted to individual pots and sprayed with various rates of commercial glyphosate as previously described. The response of these plants is presented in terms of % visual injury 2 weeks after treatment (WAT). […] An arithmetic mean and standard deviation is presented for each construct used for Arabidopsis transformation. The range in individual response is also indicated in the last column for each rate and transformation. Wild-type, non-transformed Arabidopsis (c.v. Columbia) served as a glyphosate sensitive control.
# T0 corn = test: T0 dgt-28 corn postemergence glyphosate tolerance; assay type: in vivo, Zea mays
# Method: Zea mays dgt-28 transformation events (T0) were allowed to acclimate in the greenhouse and were grown until plants had transitioned from tissue culture to greenhouse growing conditions (i.e., 2-4 new, normal looking leaves had emerged from the whorl). Plants were grown at 27° C. under 16 hour light:8 hour dark conditions in the greenhouse. The plants were then treated with commercial formulations of DURANGO DMA™ (containing the herbicide glyphosate) with the addition of 2% w/v ammonium-sulfate. Herbicide applications were made with a track sprayer at a spray volume of 187 L/ha, 50-cm spray height. T0 plants were sprayed with a range of glyphosate from 280-4480 g ae/ha glyphosate, which is capable of significant injury to untransformed corn lines. A lethal dose is defined as the rate that causes >95% injury to the B104 inbred.
# T0 events of dgt-28 linked with TraP4, TraP5, TraP8 and TraP23 were generated by Agrobacterium transformation and were allowed to acclimate under controlled growth chamber conditions until 2-4 new, normal looking leaves had emerged from the whorl. Plants were assigned individual identification numbers and sampled for copy number analyses of both dgt-28 and aad-1. Based on copy number analyses, plants were selected for protein expression analyses. […]
# [3] = test system: T1 wheat, Bobwhite MPB26RH; test: Wheat detailed phenotypic screen (glyphosate 420-3360 g ai/ha); assay type: in vivo, Triticum aestivum; settings: untransformed donor wheat
# Method: Four replicates of 12 T1 seeds per selected event and eight replicates (12 seeds each) of the untransformed donor wheat line Bobwhite MPB26RH were sown in 85 mm pots and grown to the 2-leaf stage under well-watered conditions at 25° C. with supplementary lighting providing a 12 hour photoperiod. The pots were placed in a randomised design to allow environmental effects to be removed during data analysis. At the 2-leaf stage, plant length and number of leaves was recorded for each plant before spraying with glyphosate. The first, second, third and fourth replicate of T1 plants for each selected event and the untransformed donor wheat line were sprayed at a dose rate of 420, 840, 1680 and 3360 g ai/ha, respectively. The fifth, sixth, seventh and eighth replicate of untransformed donor wheat line (total 48 plants) were not sprayed. At 7, 14 and 21 days after spraying, the plants were scored for plant length, number of leaves and phenotypic response to glyphosate using the scoring scale in Table 37. Any morphological abnormalities were also recorded. For scoring, the scorer was “blinded” with regard to plant genotype and spray dose rate to prevent scoring bias. Plants with delayed germination and poor establishment (criteria: plant length <6 cm) at the pre-spray scoring were excluded from subsequent analyses.
# This differentiation was maximal at 21 days and was observed across all glyphosate dose rates. Table 41. To assess the tolerance of the transgenic events to glyphosate at each spray dose rate, null T1 plants (i.e., plants not carrying the transgene) were excluded from subsequent analyses. T1 plants with a response score of less than three at 21 days after spraying were considered to have the null genotype. […]
# T1 Arabidopsis [4] = test: dgt-31, dgt-32, dgt-33 v1 T1 Arabidopsis response to glyphosate, visual % injury 2 WAT; assay type: in vivo, Arabidopsis thaliana
# From the text: T1 plants were sampled and copy number analysis for the dgt-31, dgt-32, and dgt-33 v1 gene were completed. T1 plants were then assigned to various rates of glyphosate so that a range of copies were among each rate. For Arabidopsis, 26.25 g ae/ha glyphosate is an effective dose to distinguish sensitive plants from ones with meaningful levels of resistance. Elevated rates were applied to determine relative levels of resistance (105, 420, 1680, or 3360 g ae/ha).
# All glyphosate herbicide applications were made by track sprayer in a 187 L/ha spray volume. Glyphosate used was of the commercial Durango dimethylamine salt formulation (480 g ae/L, Dow AgroSciences, LLC).
# T1 plants selected above were subsequently transplanted to individual pots and sprayed with various rates of commercial glyphosate. Table 15 compares the response of dgt-31, dgt-32, and dgt-33 v1 and control genes to impart glyphosate resistance to Arabidopsis T1 transformants. Response is presented in terms of % visual injury 2 WAT. […] An arithmetic mean and standard deviation is presented for each treatment. The range in individual response is also indicated in the last column for each rate and transformation. Wild-type non-transformed Arabidopsis (cv. Columbia) served as a glyphosate sensitive control. […]
# [5] = test system: EPSP synthase (DGT enzymes); test: Steady-state kinetic parameters of DGT enzymes (Km for PEP, kcat/Km); assay type: biochemical
# Method: The enzyme activities of wild-type (WT) and mutant DGTs were measured by inorganic phosphate (Pi) production in a modified procedure described by Lanzetta et al. (1979) Anal. Bioch. […] Assays were performed in 96-well plate format in a total of 50 μL on a Spectra-Max 190 plate reader (Molecular Devices, Sunnyvale, Calif.). Typical assays contained 50 mM HEPES pH 7.5, 150 mM KCl, 2 mM DTT, and 1 mM S3P. […] Assays were initiated by addition of the DGT enzyme at concentrations that varied between 0.01-1 μM. Reactions were terminated by the addition of 235 μL of a 3:1 mixture of malachite green: ammonium molybdate solution. After complete color development (˜1 minute), the absorbance change at 660 nm was recorded and the amount of Pi formed was calculated from a standard curve. Control reactions lacking enzyme were used to correct for background absorbance. […] The data were fitted to the Michaelis-Menten equation which allowed for the determination of Km and Vmax (Equation 3) while IC50 was determined from Equation 4, where y is the relative activity and s is the Hill coefficient. Data were analyzed using GRAFIT™ version 5 software (Erithacus Software Limited, Horley, U.K.).
# [6] = 420 g ai/ha, Replicate 1, 10 plants pre-spray
# [7] = 840 g ai/ha, Replicate 2, 10 plants pre-spray
# [8] = 1680 g ai/ha, Replicate 3, 11 plants pre-spray
# [9] = 3360 g ai/ha, Replicate 4, 10 plants pre-spray
molecule,measurement,setting,value
"O=C(O)CNCP(=O)(O)O [glyphosate, N-(phosphonomethyl) glycine]",glyphosate concentration sufficient to inhibit cell growth,[1],≥ 0.25 mM
same,typical 1× usage rate of glyphosate that will control non-transformed Arabidopsis,T1 Arabidopsis [2],420 g ae/ha
same,glyphosate rate controlling non-transformed plants,T0 corn,≥ 280 g ae/ha
same,No. surviving plants at 14 days after spraying,[3]; [6],0
same,No. surviving plants at 21 days after spraying,[3]; [6],0
same,No. surviving plants at 14 days after spraying,[3]; [7],3
same,No. surviving plants at 21 days after spraying,[3]; [7],0
same,No. surviving plants at 14 days after spraying,[3]; [8],0
same,No. surviving plants at 21 days after spraying,[3]; [8],0
same,No. surviving plants at 14 days after spraying,[3]; [9],1
same,No. surviving plants at 21 days after spraying,[3]; [9],0
same,effective dose to distinguish sensitive plants from ones with meaningful levels of resistance,T1 Arabidopsis [4]; Arabidopsis,26.25 g ae/ha
B1,catalytic efficiency,[5],132000 M⁻¹ s⁻¹
same,Km,[5]; read-out: KM^PEP,91.6 µM
B2,tolerance to glyphosate,"T1 Arabidopsis [4]; T1 Arabidopsis, DGT-31 with TraP23, DGT-32, DGT-33 with TraP8, TraP14, TraP24",slight herbicide tolerance
